Experimental data: PMC5501099 (Malaria Journal, 2017)

Tests used:
An. gambiae = test system: An. gambiae; design: method as in PMID 20540931; conditions: cited from earlier work
[1] = design: method as in earlier work; conditions: humans, n = 4; cited from earlier work
An. dirus = assay: Anticoagulant effects on mosquito survival with ivermectin LC25; format: in vivo, Anopheles dirus; conditions: sodium heparin vs CPDA, 7 days
Protocol: Blood was drawn from a single donor and put directly into 10 ml sodium heparin tubes (NH) (158 USP units, BD Vacutainer, Franklin Lakes, NJ, USA) or 6ml CPDA Vacuette tubes (Greiner Bio-One, Kremsmϋnster, Austria) under protocol (Protocol WRAIR#2079).

ivermectin
An. gambiae 5-day-LC50 (An. gambiae): 0.0224 µg/mL | Parent compound half-life [1]: 11.8 h | Effect of anticoagulant type on survivorship of An. dirus that ingested ivermectin (An. dirus): did not alter survivorship
